Data: patent US5686486A, “4-hydroxy-benzopyran-2-ones and 4-hydroxy-cycloalkyl[b]pyran-2-ones useful to treat retroviral infections” (priority 1995, dated 1997)
Like-named read-outs stand apart in the source and are kept apart here.

Target: HIV-1 protease (Human immunodeficiency virus type 1 group M subtype B, UniProt P04585)
Assay: biochemical
Conditions: for inhibition at 0.123 µM: read-out: HIV-1 Protease % Inhib, dose 0.123 uM
In short: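 Percent inhibition derived from fluorescent cleavage product separated by filtration after streptavidin-bead capture of intact biotin/FITC substrate. Reaction: enzyme (10 μl, 0.1 μM stock) with substrate (20 μl, 0.2 μM stock) and compound, 1 h at room temperature in dark, pH 5.5 acetate buffer with 1.0 M NaCl and 0.05% NP-40.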

[1] = dose 1.100 uM, read-out: HIV-1 Protease % Inhib
[2] = dose 3.300 uM, read-out: HIV-1 Protease % Inhib
[3] = dose 10.000 uM, read-out: HIV-1 Protease % Inhib
[4] = dose 30.000 uM, read-out: HIV-1 Protease % Inhib
[5] = read-out: HIV-1 Protease % Inhib, dose 0.370 uM
[6] = read-out: HIV-1 Protease % Inhib, dose 1.100 uM
[7] = read-out: HIV-1 Protease % Inhib, dose 3.300 uM
[8] = read-out: HIV-1 Protease % Inhib, dose 10.000 uM
[9] = read-out: HIV-1 Protease % Inhib, dose 30.000 uM

SMILES | inhibition at 1.1 µM [1] [%] | inhibition at 3.3 µM [2] [%] | inhibition at 10 µM [3] [%] | inhibition at 30 µM [4] [%] | inhibition at 0.123 µM [%] | inhibition at 0.37 µM [5] [%] | inhibition at 1.1 µM [6] [%] | inhibition at 3.3 µM [7] [%] | inhibition at 10 µM [8] [%] | inhibition at 30 µM [9] [%] | other results
CCNC(=S)Nc1cccc(C(c2c(O)c3c(oc2=O)CCCCCC3)C2CC2)c1 (stereo not drawn) [Example 367, Thiourea, N-[3-[cyclopropyl(5,6,7,8,9,10-hexahydro-4-hydroxy-2-oxo-2H-cycloocta[b]pyran-3-yl)methyl]phenyl]-N'-ethyl-] | 23.7 | 58.5 | 86.1 | 102 | – | – | – | – | – | – | –
O=c1oc2c(c(O)c1C(c1cccc(NC(=S)Cc3ccccc3)c1)C1CC1)CCCCCC2 (stereo not drawn) [Example 368, Benzeneethanethioamide, N-[3-[cyclopropyl(5,6,7,8,9,10-hexahydro-4-hydroxy-2-oxo-2H-cycloocta[b]pyran-3-yl)methyl]phenyl]-] | 17.4 | 54.5 | 77.8 | 86.8 | – | – | – | – | – | – | –
CC(C)C(c1cccc(NC(=O)OCc2ccccc2)c1)c1c(O)c2c(oc1=O)CCCCCC2 (stereo not drawn) [Example 370, [3-[1-(5,6,7,8,9,10-Hexahydro-4-hydroxy-2-oxo-2H-cycloocta[b]pyran-3-yl)-2-methylpropyl]phenyl]-carbamic acid, phenylmethyl ester] | – | – | 19.4 | 33.1 | – | – | – | – | – | – | –
CC(C)C(c1cccc(NS(=O)(=O)c2ccc(C#N)cc2)c1)c1c(O)c2c(oc1=O)CCCCCC2 (stereo not drawn) [Example 372, 4-Cyano-N-[3-[1-(6,7,8,9,10-hexahydro-4-hydroxy-2-oxo-2H-cycloocta[b]pyran-3-yl)-2-methylpropyl]phenyl]-benzenesulfonamide] | – | – | – | – | 65.3 | 91.3 | 105 | 108 | 109 | 106 | –
CCCC(c1cccc(NC(=O)OCc2ccccc2)c1)c1c(O)c2c(oc1=O)CCCCCC2 (stereo not drawn) [Example 375, [3-[1-(5,6,7,8,9,10-Hexahydro-4-hydroxy-2-oxo-2H-cycloocta[b]pyran-3-yl)butyl]phenyl]-carbamic acid, phenylmethyl ester] | 28.5 | 57.4 | 79 | 86 | – | – | – | – | – | – | inhibition at 0.37 µM (dose 0.370 uM, read-out: HIV-1 Protease % Inhib): 10.2%
O=c1oc2c(c(O)c1C(c1ccc(CO)o1)C1CC1)CCCCCC2 (stereo not drawn) [Example 383] | 28.9 | 73 | 90.2 | 94.6 | – | – | – | – | – | – | –
COCOCc1ccc(C(c2c(O)c3c(oc2=O)CCCCCC3)C2CC2)o1 (stereo not drawn) [Example 386] | 14.3 | 35.4 | 64.5 | 96.3 | – | – | – | – | – | – | –
O=c1oc2c(c(O)c1C(c1ccc(CNS(=O)(=O)c3ccc(F)cc3)o1)C1CC1)CCCCCC2 (stereo not drawn) [Example 390] | 13.1 | 43.6 | 66.4 | 85.2 | – | – | – | – | – | – | –
N#Cc1ccc(S(=O)(=O)NCc2ccc(C(c3c(O)c4c(oc3=O)CCCCCC4)C3CC3)o2)cc1 (stereo not drawn) [Example 391] | – | 28.3 | 59.1 | 84.2 | – | – | – | – | – | – | –
N#Cc1ccc(S(=O)(=O)NCc2ccc(C(c3c(O)c4c(oc3=O)CCCCCC4)C3CC3)s2)cc1 (stereo not drawn) [Example 392] | 11.5 | 47 | 77.6 | 99.7 | – | – | – | – | – | – | –
O=c1oc2c(c(O)c1C(c1ccc(CNS(=O)(=O)c3ccc(F)cc3)s1)C1CC1)CCCCCC2 (stereo not drawn) [Example 393] | – | 37.5 | 66.3 | 89.8 | – | – | – | – | – | – | –
CCCCOc1ccc(S(=O)(=O)Nc2cccc(C(c3c(O)c4c(oc3=O)CCCCCC4)C3CC3)c2)cc1 (stereo not drawn) [Example 406, 4-Butoxy-N-[3-[cyclopropyl(5,6,7,8,9,10-hexahydro-4-hydroxy-2-oxo-2H-cycloocta[b]pyran-3-yl)methyl]phenyl]-benzenesulfonamide] | – | – | – | – | 37.1 | 69.4 | – | – | – | – | HIV-1 Protease % Inhib (dose 1.100 uM): 87.61%; HIV-1 Protease % Inhib (dose 3.300 uM): 85.17%; HIV-1 Protease % Inhib (dose 10.000 uM): 97.39%; HIV-1 Protease % Inhib (dose 30.000 uM): 97.21%
O=c1oc2c(c(O)c1C(c1cccc(NS(=O)(=O)c3ccc(Cl)c(Cl)c3Cl)c1)C1CC1)CCCCCC2 (stereo not drawn) [Example 410, 2,3,4-Trichloro-N-[3-[cyclopropyl(5,6,7,8,9,10-hexahydro-4-hydroxy-2-oxo-2H-cycloocta[b]pyran-3-yl)methyl]phenyl]-benzenesulfonamide] | – | – | – | – | 49.5 | 79.7 | 91.4 | 90.9 | 96.8 | 98.3 | –
CC(C)C(c1cccc(NS(=O)(=O)c2cccc3cccnc23)c1)c1c(O)c2c(oc1=O)CCCCCC2 (stereo not drawn) [Example 416, 8-Quinolinesulfonamide, N-[3-[1-(5,6,7,8,9,10-hexahydro4-hydroxy-2-oxo-2H-cycloocta[b]pyran-3-yl)-2-methylpropyl]phenyl]-] | – | – | – | – | 50.9 | 88 | 102 | 99.7 | 98.6 | 97.8 | –
CC(C)C(c1cccc(NS(=O)(=O)c2cccnc2)c1)c1c(O)c2c(oc1=O)CCCCCC2 (stereo not drawn) [Example 417, 3-Pyridinesulfonamide, N-[3-[1-(5,6,7,8,9,10-hexahydro4-hydroxy-2-oxo-2H-cycloocta[b]pyran-3-yl)-2-methylpropyl]phenyl]-] | – | – | – | – | 36.4 | 65.9 | 89.2 | 95.1 | 102 | 97.3 | –
CC(C)C(c1cccc(NS(=O)(=O)c2ccc(F)cc2)c1)c1c(O)c2c(oc1=O)CCCCCC2 (stereo not drawn) [Example 418, Benzenesulfonamide, N-[3-[1-(5,6,7,8,9,10-hexahydro-4-hydroxy-2-oxo-2H-cycloocta[b]pyran-3-yl)-2-methylpropyl]phenyl]4-fluoro-] | – | – | – | – | 81.8 | 87.5 | 98.6 | 110 | 119 | 123 | –
CCCCC(c1cccc(NS(=O)(=O)c2ccc(C#N)cc2)c1)c1c(O)c2c(oc1=O)CCCCCC2 (stereo not drawn) [Example 421, Benzenesulfonamide, 4-cyano-N-[3-[1-(5,6,7,8,9,10-hexahydro-4-hydroxy-2-oxo-2H-cycloocta[b]pyran-3-yl)pentyl]phenyl]-] | – | – | – | – | 93.9 | 104 | 99.1 | 97.9 | 108 | 90 | –
CCCCC(c1cccc(NS(=O)(=O)c2ccc(F)cc2)c1)c1c(O)c2c(oc1=O)CCCCCC2 (stereo not drawn) [Example 422] | – | – | – | – | 100 | 95.4 | 96.5 | 103 | 97.6 | 95.2 | –
CC(C)CC(c1cccc(NS(=O)(=O)c2ccc(F)cc2)c1)c1c(O)c2c(oc1=O)CCCCCC2 (stereo not drawn) [Example 425, Benzenesulfonamide, N-[3-[1-(5,6,7,8,9,10-hexahydro-4-hydroxy-2-oxo-2H-cycloocta[b]pyran-3-yl)-3-methylbutyl]phenyl]-4-fluoro-] | – | – | – | – | 97.4 | 109 | 101 | 108 | 98.5 | 98.5 | –
CC(C)CC(c1cccc(NS(=O)(=O)c2cccc3cccnc23)c1)c1c(O)c2c(oc1=O)CCCCCC2 (stereo not drawn) [Example 428, 8-Quinolinesulfonamide, N-[3-[1-(5,6,7,8,9,10-hexahydro4-hydroxy-2-oxo-2H-cycloocta[b]pyran-3-yl)-3-methylbutyl]phenyl]-] | – | – | – | – | 86.3 | 84 | 86.5 | 87.1 | 87.9 | 84.2 | –
CC(C)CC(c1cccc(NS(=O)(=O)c2cccnc2)c1)c1c(O)c2c(oc1=O)CCCCCC2 (stereo not drawn) [Example 429, 3-Pyridinesulfonamide, N-[3-[1-(5,6,7,8,9,10-hexahydro4-hydroxy-2-oxo-2H-cycloocta[b]pyran-3-yl)-3-methylbutyl]phenyl]-] | – | – | – | – | 88.6 | 98.2 | 99.9 | 103 | 107 | 108 | –
CCCC(c1cccc(NS(=O)(=O)c2ccc(F)cc2)c1)c1c(O)c2c(oc1=O)CCCCCC2 (stereo not drawn) [Example 430, Benzenesulfonamide, N-[3-[1-(5,6,7,8,9,10-hexahydro-4-hydroxy-2-oxo-2H-cycloocta[b]pyran-3-yl)butyl]phenyl]-4-fluoro-] | – | – | – | – | 72.3 | 98.2 | 96.6 | 104 | 105 | 97.3 | –
O=C(Nc1ccc(C(c2c(O)c3c(oc2=O)CCCCCC3)C2CC2)cc1)OCc1ccccc1 (stereo not drawn) [Example 470, Carbamic acid, [4-[cyclopropyl (5,6,7,8,9,10-hexahydro-4-hydroxy-2-oxo-2H-cycloocta[b]pyran-3-yl)methyl]phenyl]-phenylmethyl ester] | 16.1 | 59.2 | 102 | 118 | – | – | – | – | – | – | –
Nc1ccc(C(c2c(O)c3c(oc2=O)CCCCCC3)C2CC2)cc1 (stereo not drawn) [Example 471, 3-[(4-Aminophenyl)cyclopropylmethyl]-5,6,7,8,9,10-hexahydro-4-hydroxy-2H-cycloocta[b]pyran-2-one] | 37.5 | 75.6 | 102 | 110 | – | – | – | – | – | – | –
